Patent US20090246269A1, “IDENTIFICATION AND USE OF GPRC VARIANTS IN THE TREATMENT AND DIAGNOSIS OF PARKINSON'S DISEASE” (priority 2006, published 2009)

Target: T1, BDKRB2 reference form (Homo sapiens, UniProt P30411)
T1 construct: expressed in transfected cells; host or cells: CHO-K1
T1 sequence (P30411 1-391): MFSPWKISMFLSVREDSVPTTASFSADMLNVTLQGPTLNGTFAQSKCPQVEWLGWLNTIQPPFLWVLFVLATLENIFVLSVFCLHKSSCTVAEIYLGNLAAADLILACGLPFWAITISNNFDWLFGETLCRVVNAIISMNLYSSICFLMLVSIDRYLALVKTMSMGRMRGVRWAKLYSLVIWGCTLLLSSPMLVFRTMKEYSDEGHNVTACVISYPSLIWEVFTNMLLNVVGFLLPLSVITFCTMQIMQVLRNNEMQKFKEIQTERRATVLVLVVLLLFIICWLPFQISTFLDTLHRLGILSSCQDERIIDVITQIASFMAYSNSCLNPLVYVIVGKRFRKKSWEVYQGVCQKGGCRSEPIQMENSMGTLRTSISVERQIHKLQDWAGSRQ
Test: NFAT-Firefly luciferase reporter assay (Dual-Glo) of BDKRB2 dependent signaling in transfected CHO-K1 cells
Assay type: cell-based
Conditions: 8 hour time-point
Protocol: FIG. 10: Effect of bradyzide titration on the activity of BDKRB2 reference form. CHO-K1 cells were transfected with pNFAT—Firefly Luciferase reporter, BDKBR2-pcDNA3.1 and pGL4.73 [hRenilla Luciferase/SV40]. 18 hrs after transfection, cells were treated with bradyzide at indicated concentration in 10% FBS medium for 8, 24 and 48 hrs. The Firefly luciferase reporter activity and the renilla luciferase activity were measured sequentially. BDKRB2 activity was estimated by calculating the Ratios of Firefly and Renilla Luciferase Units (RLU).
The Promega Dual-Glo™ Assay system was used to indirectly monitor BDKRB2 dependent signaling.

inhibition of serum induced activity in luciferase reporter assay: inhibited
reduction of serum-induced basal BDKRB2 activity (bradyzide titration, 10% FBS medium): about 40%
Structure (SMILES): CN(C)CCN(C)CCNC(=O)[C@@H]1CCCN1S(=O)(=O)c1ccc(NNC(=S)NC(c2ccccc2)c2ccccc2)c([N+](=O)[O-])c1 [bradyzide]
